Assay results as given in US20240199651A1, “ANTIBACTERIAL COMPOUNDS” (JANSSEN SCIENCES IRELAND UNLIMITED COMPANY, priority 2021, published 2024).
Like-named read-outs stand apart in the source and are kept apart here.

Experiment: Mitochondrial toxicity (Glu/Gal) assay
Type: cell-based
Conditions: for Δ IC50, glu/IC50, gal: ratio IC50 glu / IC50 gal; for Score: mitotoxicity score, Glu/Gal assay
Excerpt: The compounds of the invention/examples may have advantages associated with in vitro potency, kill kinetics (i.e. bactericidal effect) in vitro, PK properties, food effect, safety/toxicity (including liver toxicity, coagulation, 5-LO oxygenase), metabolic stability, Ames II negativity, MNT negativity, aqueous based solubility (and ability to formulate) and/or cardiovascular effect e.g. on animals (e.g. anesthetized guinea pig). Data that is generated/calculated may be obtained using standard methods/assays, for instance that are available in the literature or which may be performed by a supplier (e.g. Microsomal Stability Assay—Cyprotex, Mitochondrial toxicity (Glu/Gal) assay—Cyprotex, as well as literature CYP cocktail inhibition assays). GSH can be measured (reactive metabolites, glucuronidation) to observe if a dihydrodiol is observed by LCMS (fragmentation ions), which would correspond to a dihydroxylation on the core heterocycle.

[1] = galactose medium (Glu/Gal mitotoxicity assay), read-out: IC50, gal
[2] = glucose medium (Glu/Gal mitotoxicity assay), read-out: IC50, glu

SMILES | IC50 [1] | IC50 [2] | Δ IC50, glu/IC50, gal | IC50 (read-out: IC50, gal) | IC50 (read-out: IC50, glu) | Score
CCc1nc2ncc(C)cn2c1C(=O)NCc1ccc(-c2nc3n(n2)CCN(S(=O)(=O)C(F)(F)F)C3)s1 [Compound 57] | > 200 µM | > 200 µM | – | – | – | –
CCc1nc2ncc(C)cn2c1C(=O)NCc1ccc(C2CN(c3nc4n(n3)CCN(S(=O)(=O)C(F)(F)F)C4)C2)cc1 [Compound 58] | – | – | >3.44 | 58.2 µM | > 200 µM | –
CCc1nc2ncc(C)cn2c1C(=O)NCc1ccc(C2CCN(c3nc4n(n3)CCN(S(=O)(=O)C(F)(F)F)C4)CC2)cc1 [Compound 59] | – | – | >11.38 | 17.6 µM | > 200 µM | [x]3
CCc1nc2ncc(C)cn2c1C(=O)NCc1ccc(N2CCC(c3nc4n(n3)CCN(S(=O)(=O)C(F)(F)F)C4)CC2)cc1 [Compound 60] | – | – | >3.56 | 56.2 µM | > 200 µM | –
CCc1nc2ncc(C)cn2c1C(=O)NCc1ccc(-c2nc3n(n2)CCN(CCC#N)C3)cc1 [Compound 61] | > 200 µM | > 200 µM | – | – | – | –
CCc1nc2ccc(C)cn2c1C(=O)NCc1ccc(-c2nc3n(n2)CCN(CCC#N)C3)cc1 [Compound 62] | > 200 µM | > 200 µM | – | – | – | –
CCc1nc2ncc(C)cn2c1C(=O)NCc1ncc(-c2nc3n(n2)CCN(S(=O)(=O)C(F)(F)F)C3)s1 [Compound 64] | > 200 µM | > 200 µM | – | – | – | –
CCc1nc2n(c1C(=O)NCc1ccc(-c3nc4n(n3)CCN(S(=O)(=O)C(F)(F)F)C4)cc1)CCN(C)C2 [Compound 65] | > 200 µM | > 200 µM | – | – | – | –
CCc1nc2ncc(C)cn2c1C(=O)NCc1cccc(-c2nc3n(n2)CCN(S(=O)(=O)C(F)(F)F)C3)c1 [Compound 67] | – | – | >1.34 | 149 µM | > 200 µM | [x]1
CCc1nc2ncc(C)cn2c1C(=O)NCc1ccc(C2CCN(c3nc4n(n3)CCN(S(=O)(=O)C(F)(F)F)C4)C2)cc1 (stereo not shown) [Compound 69] | – | – | 11.37 | 15.3 µM | 174 µM | [x]3
CCc1nc2ncc(C)cn2c1C(=O)NCc1ccc(N2CCN(c3nc4n(n3)CCN(S(=O)(=O)C(F)(F)F)C4)CC2)cc1 [Compound 70] | – | – | – | > 50 µM | > 50 µM | –
CCc1nc2ncc(C)cn2c1C(=O)NCc1csc(-c2nc3n(n2)CCN(S(=O)(=O)C(F)(F)F)C3)n1 [Compound 73] | – | – | – | > 200 µM | > 200 µM | –
CCc1nc2ncc(C)cn2c1C(=O)NCc1nc(-c2nc3n(n2)CCN(S(=O)(=O)C(F)(F)F)C3)cs1 [Compound 75] | – | – | – | > 200 µM | > 200 µM | –
CCc1nc2ncc(C)cn2c1C(=O)NCc1nnc(-c2nc3n(n2)CCN(S(=O)(=O)C(F)(F)F)C3)s1 [Compound 76] | – | – | – | > 200 µM | > 200 µM | –
CCc1nc2ncc(Cl)cn2c1C(=O)NCc1cnc(-c2nc3n(n2)CCN(S(=O)(=O)C(F)(F)F)C3)c(F)c1 [Compound 77] | – | – | – | > 200 µM | > 200 µM | –
CCc1nc2cc(N)c(Cl)cn2c1C(=O)NCc1cnc(-c2nc3n(n2)CCN(S(=O)(=O)C(F)(F)F)C3)c(F)c1 [Compound 78] | – | – | – | > 200 µM | > 200 µM | –
CCc1nc2ncc(C)cn2c1C(=O)NC(C)(C)c1ccc(-c2nc3n(n2)CCN(S(=O)(=O)C(F)(F)F)C3)cc1 [Compound 83] | – | – | 1.12 | 127 µM | 142 µM | [x]1
CCc1nc2ncc(C)cn2c1C(=O)NCc1ccc(-c2cn3c(n2)CN(S(=O)(=O)C(F)(F)F)CC3)cc1 [Compound 89] | > 200 µM | > 200 µM | – | – | – | –
CCc1nc2ncc(Cl)cn2c1C(=O)NCc1ccc(-c2cn3c(n2)CN(S(=O)(=O)C(F)(F)F)CC3)cc1 [Compound 90] | > 200 µM | > 200 µM | – | – | – | –
CCc1nc2ncc(Cl)cn2c1C(=O)NCc1ccc(-c2cc3n(n2)CCN(S(=O)(=O)C(F)(F)F)C3)cc1 [Compound 91] | – | – | >12.85 | 15.6 µM | > 200 µM | [x]3
Cc1cnc2nc(C3CC3)c(C(=O)NCc3ccc(-c4cc5n(n4)CCN(S(=O)(=O)C(F)(F)F)C5)cc3)n2c1 [Compound 93] | > 200 µM | > 200 µM | – | – | – | –
CCc1nc2ncc(C)cn2c1C(=O)NCc1cccc(Cc2cc3n(n2)CCN(S(=O)(=O)C(F)(F)F)C3)c1 [Compound 95] | – | – | >1.7 | 117 µM | > 200 µM | [x]1
CC(=O)N1CCn2nc(-c3ccc(CNC(=O)c4c(C5CC5)nc5ncc(C)cn45)cc3)cc2C1 [Compound 96] | > 200 µM | > 200 µM | – | – | – | –

SMILES | IC50 [1] | IC50 [2] | Δ IC50, glu/IC50, gal | IC50 (read-out: IC50, gal) | IC50 (read-out: IC50, glu) | Score
Cc1cnc2nc(C3CC3)c(C(=O)NCc3ccc(-c4nc5n(n4)CCN(S(=O)(=O)C(F)(F)F)C5)c(F)c3)n2c1 [Compound 97] | > 25 µM | > 25 µM | – | – | – | –
Cc1cnc2nc(C3CC3)c(C(=O)NCc3ccc(-c4cc5n(n4)CCN(S(C)(=O)=O)C5)cc3)n2c1 [Compound 99] | > 200 µM | > 200 µM | – | – | – | –
Cc1cnc2nc(C3CC3)c(C(=O)NCc3ccc(-c4cc5n(n4)CCN(C)C5)cc3)n2c1 [Compound 100] | > 200 µM | > 200 µM | – | – | – | –
COCCN1CCn2nc(-c3ccc(CNC(=O)c4c(C5CC5)nc5ncc(C)cn45)cc3)cc2C1 [Compound 101] | > 200 µM | > 200 µM | – | – | – | –
Cc1cnc2nc(C3CC3)c(C(=O)NCc3ccc(-c4nn5c(c4C)CN(S(=O)(=O)C(F)(F)F)CC5)cc3)n2c1 [Compound 102] | – | – | >6.69 | 29.9 µM | > 200 µM | [x]3
O=C(NCc1ccc(-c2nc3n(n2)CCN(S(=O)(=O)C(F)(F)F)C3)cc1)c1c(C2CC2)nc2ncc(Cl)cn12 [Compound 103] | – | – | >1.3 | 38.6 µM | > 50 µM | [x]0
Cc1cnc2nc(C3CC3)c(C(=O)NCc3ccc(-c4cc5n(n4)CCN(CC(F)(F)F)C5)cc3)n2c1 [Compound 107] | – | – | >1.13 | 44.2 µM | > 50 µM | [x]0
Cc1cnc2nc(C3CC3)c(C(=O)NCc3ccc(-c4cc5n(n4)CCN(S(=O)(=O)CC(C)C)C5)cc3)n2c1 [Compound 108] | – | – | >1.29 | 38.6 µM | > 50 µM | [x]0
COCCS(=O)(=O)N1CCn2nc(-c3ccc(CNC(=O)c4c(C5CC5)nc5ncc(C)cn45)cc3)cc2C1 [Compound 109] | > 50 µM | > 50 µM | – | – | – | –
CCc1nc2ncc(C)cn2c1C(=O)NCc1ccc(-c2nc3n(n2)CCN(S(=O)(=O)C(F)(F)F)C3)cc1 [Compound 110] | > 100 µM | > 100 µM | – | – | – | –
O=C(NCc1ccc(-c2cn3c(n2)CN(S(=O)(=O)C(F)(F)F)CC3)cc1)c1c(C(F)(F)F)nc2ccccn12 [Compound 115] | – | – | >3.08 | 64.8 µM | > 200 µM | –
O=C(NCc1ccc(-c2cn3c(n2)CN(S(=O)(=O)C(F)(F)F)CC3)cc1)c1c(C(F)F)nc2ccccn12 [Compound 116] | – | – | >9.96 | 20.1 µM | > 200 µM | [x]3
CCc1nc2ccc(Cl)cn2c1C(=O)NCc1ccc(-c2cn3c(n2)CN(S(=O)(=O)C(F)(F)F)CC3)cc1 [Compound 117] | > 50 µM | > 50 µM | – | – | – | –
CCc1nc2ccc(Cl)cn2c1C(=O)NCc1ccc(-c2cc3n(n2)CCN(S(=O)(=O)C(F)(F)F)C3)cc1 [Compound 118] | – | – | >1.57 | 127 µM | > 200 µM | [x]1
O=C(NCc1ccc(-c2cc3n(n2)CCN(S(=O)(=O)C(F)(F)F)C3)cc1)c1c(C(F)(F)F)nc2ccccn12 [Compound 119] | – | – | >1.54 | 130 µM | > 200 µM | [x]1
O=C(NCc1ccc(-c2cc3n(n2)CCN(S(=O)(=O)C(F)(F)F)C3)cc1)c1c(C(F)F)nc2ccccn12 [Compound 120] | – | – | >8.01 | 25 µM | > 200 µM | [x]3
Cc1c(-c2ccc(CNC(=O)c3c(C(F)(F)F)nc4ccccn34)cc2)nn2c1CN(S(=O)(=O)C(F)(F)F)CC2 [Compound 121] | – | – | >4.31 | 46.4 µM | > 200 µM | –
O=C(NCc1ccc(-c2nc3n(n2)CCN(S(=O)(=O)C(F)(F)F)C3)cc1)c1c(C(F)(F)F)nc2ccccn12 [Compound 122] | > 100 µM | > 100 µM | – | – | – | –
Cc1cnc2nc(C3CC3)c(C(=O)NCc3cnc(-c4cc5n(n4)CCN(S(=O)(=O)C(F)(F)F)C5)c(F)c3)n2c1 [Compound 125] | > 200 µM | > 200 µM | – | – | – | –
CCc1nc2ncc(C)cn2c1C(=O)NCc1ccc(-c2cc3n(n2)CCN(S(=O)(=O)C(F)(F)F)C3)cn1 [Compound 126] | > 200 µM | > 200 µM | – | – | – | –
Cc1cnc2nc(C3CC3)c(C(=O)NCc3ccc(-c4cc5n(n4)CCN(S(=O)(=O)C(F)(F)F)C5)nc3)n2c1 [Compound 128] | > 200 µM | > 200 µM | – | – | – | –
Cc1cnc2nc(C3CC3)c(C(=O)NCc3cnc(-c4nc5n(n4)CCN(S(=O)(=O)C(F)(F)F)C5)c(F)c3)n2c1 [Compound 130] | > 200 µM | > 200 µM | – | – | – | –
CCc1nc2ncc(C)cn2c1C(=O)NCc1cnc(-c2cc3n(n2)CCN(S(=O)(=O)C(F)(F)F)C3)nc1 [Compound 131] | > 100 µM | > 100 µM | – | – | – | –
